Measurements reported in ChEMBL document CHEMBL5727525, “4,5-substituted picolinamide and picolinonitrile metabotropic glutamate receptor 2 negative allosteric modulators” (2020).

Assay: Ca2+ Flux Assay: GÎ±15 HEK293 cells stably expressing rat mGlu2 were plated in black-walled, clear-bottomed, poly-D-lysine coated 384-well plates in 20 Î¼L of assay medium (DMEM containing 10% dialyzed FBS, 20 mM HEPES, and 1 mM sodium pyruvate) at a density of 12K cells/well. The cells were grown overnight at 37° C. in the presence of 5% CO2. The next day, medium was removed and the cells incubated with 20 Î¼L of 2.3 Î¼M Fluo-4, AM prepared as a 2.3 mM stock in DMSO and mixed in a 1:1 ratio with 10% (w/v) pluronic acid F-127 and diluted in assay buffer (Hank's balanced salt solution, 20 mM HEPES, and 2.5 mM probenecid) for 45 minutes at 37° C. Dye was removed, 20 Î¼L of assay buffer was added, and the plate was incubated for 5 minutes at room temperature.

IC50 [µM]	SMILES
> 10	C[C@@H]1CN(CCOc2cnc(C(N)=O)cc2-c2ccc(F)cc2)C[C@H](C)O1
> 30	C[C@@H]1CN(CCOc2cnc(C#N)cc2-c2ccc(F)cc2)C[C@H](C)O1
2.01	NC(=O)c1cc(-c2ccc(F)cc2)c(OCCOc2ccccc2F)cn1

The remaining lines, values behind:

SMILES	IC50 [µM]
C[C@@H]1CN(CCCOc2cnc(C(N)=O)cc2-c2ccc(F)cc2)C[C@H](C)O1	> 10
Cn1cc(-c2cc(C(N)=O)ncc2OCc2ccc(C(F)(F)F)nc2)cn1	> 10
